Here are results for 49 molecules from ChEMBL document CHEMBL1201862, “PubChem BioAssay data set” (2004).

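Values below derive from 48-hour exposures of cells grown in 96-well plates, with endpoints linearly interpolated between the two concentrations bracketing the appropriate inhibition level. GI50 marks 50% less growth.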 Calls of active or inactive are those of the source. Rule as the data show it: active = GI50 up to about 1.1 µM and inactive = higher. Where a SMILES comes first, the peptide text is derived from it. [ ]: non-standard residue; d: D form. The star is where a group is joined. Phe(4-NO2) = N[CH](Cc1ccc([N+](=O)[O-])cc1)C(=O)O; Boc = CC(C)(C)OC(=O)*; OtBu = CC(C)(C)O*

Test systems include Hs-578T; DLD-1; DMS-273; HOP-18; KM-20L2; M19-MEL; SNB-78; XF498.
What all share (assay): inhibition of tumour cell growth, NCI panel, 48 h

For the molecule `Clc1ccc(C2=CC(c3ccccc3)N3C(=N[C@H]4CCCC[C@@H]43)N2)cc1` (stereo partly drawn), the GI50 in the test with Hs-578T was 3.12 µM (inactive). Consider `COC(=O)C1=C(C(=O)NNc2ccccc2)N(c2cccnc2Cl)C(c2ccccc2)=CC1c1ccccc1` (stereo not drawn), for which the GI50 in the test on Hs-578T is > 100 µM (inactive). Still for that read-out and setting: the same measure for `CN(C)c1ccc(C2CC(c3ccc4ccccc4c3O)=NN2c2ccc([N+](=O)[O-])cc2[N+](=O)[O-])cc1` (stereo not drawn): 48.8 µM (inactive). Regarding `CC(=O)Oc1ccc(/C=C/C(=O)NCCOC(=O)/C=C/c2ccc(OC(C)=O)c(OC(C)=O)c2)cc1OC(C)=O`, in the test with Hs-578T, the GI50 is 33.6 µM (inactive).

With `COc1ccc(/C=N/N=C(\N)NO)c(O)c1`, the GI50 with Hs-578T was > 10 µM (inactive). For `CC(C)(CN)SCc1ccccc1`, the GI50 with Hs-578T was > 100 µM (inactive). On to `Cc1n[nH]c(=O)n1C1CCCC1`, for which, in the test with Hs-578T, the GI50 was > 100 µM (inactive). On to `Nc1ncnc2c1ncn2CC(O)C(=O)O` (stereo not drawn), for which the GI50 is > 100 µM (inactive) with DLD-1; > 100 µM (inactive) in the test with DMS-273; 71 µM (inactive) with HOP-18; > 100 µM (inactive) in the test with Hs-578T; > 100 µM (inactive) with KM-20L2; > 100 µM (inactive) with M19-MEL.

In the case of `O=C(/C=C/c1ccccc1Cl)c1ccccc1Cl`, the GI50 with DLD-1 is 17.5 µM (inactive); in the test with DMS-273 it was 16.9 µM (inactive); in the test with HOP-18 it was 28.1 µM (inactive); in the test with KM-20L2, 18.1 µM (inactive); in the test on M19-MEL, 25.8 µM (inactive); in the test with SNB-78 it was 22.4 µM (inactive).

Regarding `NCCCc1nonc1C(=O)O`, the GI50 with Hs-578T is > 100 µM (inactive). Take `C=C(C(=O)O)[C@@H]1C[C@@H]2O[C@H]1[C@@H](O)[C@@H](C)CCCC(C)=CCC[C@@]2(C)O`: the GI50 in the test with Hs-578T was > 100 µM (inactive). On the same count and under the same terms, the same measure for `CC[C@@H]1C[C@@H](O)[C@@H]2[C@H](O)[C@H](O)CN2C1`: > 100 µM (inactive); for `CC(=O)C1C(=O)C(=O)N(c2cccc([N+](=O)[O-])c2)C1=O` (stereo not drawn): > 100 µM (inactive); for `CC(=O)N1C(C(=O)NNc2ccccc2)CSC1c1ccccc1` (stereo not drawn): > 100 µM (inactive). Regarding `O=C(/C=C1\Nc2ccccc2C(=O)N1c1ccc(Cl)cc1)c1ccncc1`, the GI50 was > 100 µM (inactive) with DLD-1; > 100 µM (inactive) with KM-20L2; > 100 µM (inactive) in the test with M19-MEL; > 100 µM (inactive) in the test with SNB-78; 30.1 µM (inactive) in the test with XF498. As for `COC(=O)C(Cc1ccc([N+](=O)[O-])cc1)NC(=O)C(CC(=O)OC(C)(C)C)NC(=O)OC(C)(C)C` (stereo not drawn) (Boc-Asp(OtBu)-[Phe(4-NO2)]-OMe; configuration not given here), in the test with Hs-578T, the GI50 was 20.1 µM (inactive). Take `COC(=O)CCCC(=O)NC1=C(Nc2ccc(OC)cc2)C(=O)c2ccccc2C1=O`: the GI50 in the test on Hs-578T was 22.8 µM (inactive). As to `C=CCc1ccccc1CC1(OCC)OC(=O)c2ccccc21` (stereo not drawn), the GI50 in the test with Hs-578T was > 100 µM (inactive). Same read-out and setting: the same measure for `COC(=O)C1CCC(=O)N1CN(C(C)=O)c1ccccc1` (stereo not drawn): > 100 µM (inactive); for `CCOC(=O)C1Cc2ccc(C)cc2C1=O` (stereo not drawn): > 100 µM (inactive). With `O=C1C2C=CC(C2)C(c2ccc(O)cc2)N1O` (stereo not drawn), the GI50 in the test with DLD-1, with KM-20L2, with M19-MEL, with SNB-78 and in the test with XF498 was > 100 µM (inactive) throughout. Turning to `C[N+]1(CCC[N+]2(C)CC3C4C=CC(CC4)C3C2)CCOCC1` (stereo not drawn), the GI50 with Hs-578T was > 100 µM (inactive).

With `Cc1cc(OCc2nnc3n2N=C(c2cc(F)c(Cl)cc2Cl)/C(=C/c2ccc(Cl)cc2)S3)ccc1Cl`, the GI50 in the test with Hs-578T was 15.2 µM (inactive).

Turning to `Cc1cn(C2CC(ON3C(=O)c4ccccc4C3=O)C(CO)O2)c(=O)[nH]c1=O` (stereo not drawn), the GI50 in the test on Hs-578T was > 10 µM (inactive). Still for that read-out and setting: to `O=c1cc(C(F)(F)F)c2cc3c(cc2o1)NCCC3` belongs 18.5 µM (inactive). As for `CC1(C)S[C@H](c2ccccc2C(=O)O)N[C@@H]1CC(=O)O`, the GI50 with DLD-1, in the test with DMS-273, in the test with HOP-18, in the test with M19-MEL and in the test on SNB-78 was > 100 µM (inactive) in each case.

For the molecule `CC1(C)OC(=O)C(C#N)=C1C[n+]1ccccc1`, the GI50 in the test on Hs-578T was > 10 µM (inactive). For the molecule `CC(C)(C)OC(=O)Nc1nnc(S(N)(=O)=O)s1`, the GI50 in the test with Hs-578T is > 100 µM (inactive). Take `CCOC(=O)c1c(N2CCOCC2)ncn(-c2cccc(Cl)c2)c1=O`: the GI50 with Hs-578T was > 100 µM (inactive). Consider `O=C(CC(C(=O)c1cccs1)c1ccsc1)c1ccsc1` (stereo not drawn), for which, in the test with Hs-578T, the GI50 is 20.3 µM (inactive). The same measure, in the same setting: the same measure for `COc1ccc(NC(=O)Oc2cc(C)c3ccc(=O)cc-3o2)c(OC)c1.COc1ccc(NC(=O)Oc2ccc3c(C)cc(=O)oc3c2)c(OC)c1`: > 100 µM (inactive).

On to `O=C(c1ccccc1)C1CCCCN1C(=O)c1ccccc1` (stereo not drawn), for which the GI50 in the test with DLD-1, in the test on DMS-273, in the test with HOP-18, in the test with KM-20L2, in the test with M19-MEL and with SNB-78 was > 100 µM (inactive) each time. For the molecule `S=C(Nc1ccc(/N=N/c2ccccc2)cc1)SCc1ccccc1`, the GI50 in the test on Hs-578T was 22.2 µM (inactive). Same read-out and setting: to `Nc1ccccc1.O=P(O)(OP(=O)(O)c1ccccc1)c1ccccc1` belongs > 100 µM (inactive); to `CC(=O)OCC1OC(N2C(=O)CC(N)=Nc3ccccc32)C(OC(C)=O)C(OC(C)=O)C1OC(C)=O` (stereo not drawn), > 100 µM (inactive).

`Cn1c(O)c(C(=O)Nc2ccc([N+](=O)[O-])cc2)c(=O)n(C)c1=S`: the GI50 is 3.7 µM (inactive) with DLD-1; 2.84 µM (inactive) in the test on HOP-18; 0.617 µM (active) with Hs-578T; 4.21 µM (inactive) with KM-20L2; 3.69 µM (inactive) in the test with M19-MEL; 2.18 µM (inactive) in the test with SNB-78. As for `CCN(CC)CCCNc1nncc2cc3c([nH]c4ccc(OC)cc43)c(C)c12`, in the test on Hs-578T, the GI50 was 10.4 µM (inactive). As for `COc1cccc(C2CC(C)(N3CCCC3)Oc3cc4c(cc32)OCO4)c1O` (stereo not drawn), the GI50 in the test on Hs-578T was 21.5 µM (inactive). As for `CN1Cc2ccccc2/C=C\c2ccccc21`, the GI50 in the test on Hs-578T was 44.8 µM (inactive). Same read-out and setting: to `O=C1Nc2nnc(S)n2NC12c1ccccc1-c1ccccc12` belongs > 100 µM (inactive). For the molecule `Cc1cn(S(=O)(=O)c2ccccc2)c2c(OCc3ccccc3)cc(NS(C)(=O)=O)cc12`, the GI50 in the test on Hs-578T was 39.5 µM (inactive). Consider `CC1=NN(c2nc(N)nc(CBr)n2)C(C)(C)C1`, for which the GI50 in the test on Hs-578T is 13.9 µM (inactive). On to `O=C(Nc1ccc(Cl)cc1Cl)c1cc2nc3ccccc3c(=O)n2c2ccccc12`, for which, in the test with Hs-578T, the GI50 was > 10 µM (inactive). Still for that read-out and setting: the same measure for `COc1ccc2c(c1)-c1nc(=S)n(CCCN(C)C)c3ccc([N+](=O)[O-])c(c13)N2`: 1.72 µM (inactive). Turning to `C=CO/N=[N+](\[O-])N(CC)CC`, the GI50 with Hs-578T is > 100 µM (inactive). Regarding `CN1C(=O)CC2CCC(=O)N2c2cccnc21` (stereo not drawn), the GI50 in the test on Hs-578T was > 100 µM (inactive). For `COC(=O)[C@@]12C3=NO[C@]1(C(=O)OC)C(O[Si](C)(C)C(C)(C)C)[C@H]1OC(C)(C)O[C@H]1[C@@H]2C(OCc1ccccc1)CC3` (stereo partly drawn), the GI50 in the test on DLD-1 is 85.1 µM (inactive); with DMS-273 it was 52 µM (inactive); in the test on HOP-18, > 100 µM (inactive); in the test with KM-20L2, 71.1 µM (inactive); with M19-MEL, 71.8 µM (inactive).

For the molecule `CC1(C)C2CCC1(C)C(N/C(=C(/C(Cl)=C(Cl)Cl)[N+](=O)[O-])n1nnc3ccccc31)C2` (stereo not drawn), the GI50 in the test on Hs-578T is 17.3 µM (inactive). In the case of `COC(=O)C1Cc2c([nH]c3ccccc23)C(c2ccccc2O)N1` (stereo not drawn), the GI50 in the test with DLD-1 was 42.9 µM (inactive); with DMS-273, 60.4 µM (inactive); in the test with HOP-18 it was > 100 µM (inactive); in the test on KM-20L2, 95.5 µM (inactive).
